Reference: the kinase profiling compilation of Christmann-Franck et al. (2016)

Legend:
Details in all cases: compound 10.0 µM
ACVR1 (human) = ACVR1 (human) (UniProt Q04771)
ACVR2A (human) = ACVR2A (human) (UniProt P27037)
BRSK2 (human) = BRSK2 (human) (UniProt Q8IWQ3)
CAMK2G (human) = CAMK2G (human) (UniProt Q13555)
CDK4 CCND3 (human) = CDK4 CCND3 (human) (UniProt P11802+P30281)
CDK7 (human) = CDK7 (human) (UniProt P50613)
CRK2 (P.falciparum) = CRK2 (P.falciparum) (UniProt P61075)
CSK (human) = CSK (human) (UniProt P41240)
CSNK1G3 (human) = CSNK1G3 (human) (UniProt Q9Y6M4)
Chain of CSNK1G3 (human) (Q9Y6M4 whole entry, looked up): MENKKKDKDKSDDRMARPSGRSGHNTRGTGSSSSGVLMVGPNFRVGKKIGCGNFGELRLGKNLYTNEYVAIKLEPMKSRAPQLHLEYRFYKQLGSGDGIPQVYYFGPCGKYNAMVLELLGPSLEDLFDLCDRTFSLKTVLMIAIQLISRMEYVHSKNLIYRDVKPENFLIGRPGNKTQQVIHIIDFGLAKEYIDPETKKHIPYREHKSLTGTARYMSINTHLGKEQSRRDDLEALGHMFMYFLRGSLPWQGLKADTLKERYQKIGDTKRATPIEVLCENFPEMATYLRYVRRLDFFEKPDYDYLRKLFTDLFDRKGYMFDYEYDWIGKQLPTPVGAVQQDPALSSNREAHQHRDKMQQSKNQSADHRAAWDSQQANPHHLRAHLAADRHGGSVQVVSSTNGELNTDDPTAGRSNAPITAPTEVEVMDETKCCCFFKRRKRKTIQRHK

DAPK3 (human) = DAPK3 (human) (UniProt O43293)
DYRK2 (human) = DYRK2 (human) (UniProt Q92630)
Chain of DYRK2 (human) (Q92630 whole entry, looked up): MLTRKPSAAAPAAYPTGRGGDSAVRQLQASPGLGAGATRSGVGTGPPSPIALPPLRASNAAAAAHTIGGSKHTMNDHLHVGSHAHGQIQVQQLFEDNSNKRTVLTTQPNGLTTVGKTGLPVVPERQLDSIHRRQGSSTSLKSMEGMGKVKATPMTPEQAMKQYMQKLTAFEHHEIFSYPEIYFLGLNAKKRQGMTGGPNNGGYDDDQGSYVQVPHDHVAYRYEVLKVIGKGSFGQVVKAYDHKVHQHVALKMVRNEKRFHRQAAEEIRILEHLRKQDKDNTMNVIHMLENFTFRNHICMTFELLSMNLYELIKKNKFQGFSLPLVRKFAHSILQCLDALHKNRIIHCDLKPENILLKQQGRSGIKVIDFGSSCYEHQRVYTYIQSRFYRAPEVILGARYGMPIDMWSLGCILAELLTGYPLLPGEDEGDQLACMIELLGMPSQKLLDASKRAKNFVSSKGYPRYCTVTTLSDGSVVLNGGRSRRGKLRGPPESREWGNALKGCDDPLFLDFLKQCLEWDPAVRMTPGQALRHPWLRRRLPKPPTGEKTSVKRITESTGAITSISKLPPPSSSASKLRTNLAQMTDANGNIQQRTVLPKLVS

EPHA4 (human) = EPHA4 (human) (UniProt P54764)
FGR (human) = FGR (human) (UniProt P09769)
Chain of FGR (human) (P09769 whole entry, looked up): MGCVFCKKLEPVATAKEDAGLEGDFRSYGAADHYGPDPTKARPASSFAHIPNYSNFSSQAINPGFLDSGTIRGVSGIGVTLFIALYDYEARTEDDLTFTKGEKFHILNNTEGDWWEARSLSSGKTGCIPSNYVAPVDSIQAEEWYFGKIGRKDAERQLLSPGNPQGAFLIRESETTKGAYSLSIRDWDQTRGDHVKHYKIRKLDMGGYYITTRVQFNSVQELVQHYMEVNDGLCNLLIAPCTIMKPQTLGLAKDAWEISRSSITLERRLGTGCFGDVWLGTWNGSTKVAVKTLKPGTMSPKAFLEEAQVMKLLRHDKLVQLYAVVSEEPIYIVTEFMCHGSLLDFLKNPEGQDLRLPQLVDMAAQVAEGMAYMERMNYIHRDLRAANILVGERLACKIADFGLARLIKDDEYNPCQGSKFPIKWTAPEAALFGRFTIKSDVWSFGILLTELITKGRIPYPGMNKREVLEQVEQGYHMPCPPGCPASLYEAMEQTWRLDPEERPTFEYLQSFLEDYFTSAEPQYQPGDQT

FLT3 (human) = FLT3 (human) (UniProt P36888)
GAK (human) = GAK (human) (UniProt O14976)
GRK4 (human) = GRK4 (human) (UniProt P32298)
IKBKB (human) = IKBKB (human) (UniProt O14920)
Chain of IKBKB (human) (O14920 whole entry, looked up): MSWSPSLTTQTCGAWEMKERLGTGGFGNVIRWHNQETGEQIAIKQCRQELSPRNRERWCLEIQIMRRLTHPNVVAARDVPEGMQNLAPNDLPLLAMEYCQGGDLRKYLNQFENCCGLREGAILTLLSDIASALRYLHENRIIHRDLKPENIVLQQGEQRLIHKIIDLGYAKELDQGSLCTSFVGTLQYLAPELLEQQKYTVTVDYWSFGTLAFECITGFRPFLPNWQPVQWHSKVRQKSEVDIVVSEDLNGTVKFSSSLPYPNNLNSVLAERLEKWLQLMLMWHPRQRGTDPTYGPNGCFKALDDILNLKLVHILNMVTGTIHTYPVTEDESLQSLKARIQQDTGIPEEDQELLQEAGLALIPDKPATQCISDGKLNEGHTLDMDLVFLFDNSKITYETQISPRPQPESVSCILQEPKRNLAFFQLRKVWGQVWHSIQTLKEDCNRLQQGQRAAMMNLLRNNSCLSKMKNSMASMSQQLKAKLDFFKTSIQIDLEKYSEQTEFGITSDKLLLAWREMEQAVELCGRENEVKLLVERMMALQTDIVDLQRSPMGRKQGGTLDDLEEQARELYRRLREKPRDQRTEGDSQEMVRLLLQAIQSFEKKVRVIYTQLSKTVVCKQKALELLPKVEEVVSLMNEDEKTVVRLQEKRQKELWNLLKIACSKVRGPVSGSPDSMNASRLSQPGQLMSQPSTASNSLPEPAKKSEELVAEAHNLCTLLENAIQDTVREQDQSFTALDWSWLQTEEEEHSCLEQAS

IKBKE (human) = IKBKE (human) (UniProt Q14164)
MAP2K3 (human) = MAP2K3 (human) (UniProt P46734)
MAP2K4 (human) = MAP2K4 (human) (UniProt P45985)
MAP3K10 (human) = MAP3K10 (human) (UniProt Q02779)
MAP3K6 (human) = MAP3K6 (human) (UniProt O95382)
MAPK4 (human) = MAPK4 (human) (UniProt P31152)
MATK (human) = MATK (human) (UniProt P42679)
[1] = system: MET (human), P08581 [M1250T]
MKNK2 (human) = MKNK2 (human) (UniProt Q9HBH9)
MST4 (human) = MST4 (human) (UniProt Q9P289)
PI4KB (human) = PI4KB (human) (UniProt Q9UBF8)
PRKG1 (human) = PRKG1 (human) (UniProt Q13976)
RET (human) = RET (human) (UniProt P07949)
[2] = system: RET (human), P07949 [V804L]
RIOK3 (human) = RIOK3 (human) (UniProt O14730)
SLK (human) = SLK (human) (UniProt Q9H2G2)
SRPK3 (human) = SRPK3 (human) (UniProt Q9UPE1)
STK25 (human) = STK25 (human) (UniProt O00506)
STK35 (human) = STK35 (human) (UniProt Q8TDR2)
TAOK2 (human) = TAOK2 (human) (UniProt Q9UL54)
TAOK3 (human) = TAOK3 (human) (UniProt Q9H2K8)
Chain of TAOK3 (human) (Q9H2K8 whole entry, looked up): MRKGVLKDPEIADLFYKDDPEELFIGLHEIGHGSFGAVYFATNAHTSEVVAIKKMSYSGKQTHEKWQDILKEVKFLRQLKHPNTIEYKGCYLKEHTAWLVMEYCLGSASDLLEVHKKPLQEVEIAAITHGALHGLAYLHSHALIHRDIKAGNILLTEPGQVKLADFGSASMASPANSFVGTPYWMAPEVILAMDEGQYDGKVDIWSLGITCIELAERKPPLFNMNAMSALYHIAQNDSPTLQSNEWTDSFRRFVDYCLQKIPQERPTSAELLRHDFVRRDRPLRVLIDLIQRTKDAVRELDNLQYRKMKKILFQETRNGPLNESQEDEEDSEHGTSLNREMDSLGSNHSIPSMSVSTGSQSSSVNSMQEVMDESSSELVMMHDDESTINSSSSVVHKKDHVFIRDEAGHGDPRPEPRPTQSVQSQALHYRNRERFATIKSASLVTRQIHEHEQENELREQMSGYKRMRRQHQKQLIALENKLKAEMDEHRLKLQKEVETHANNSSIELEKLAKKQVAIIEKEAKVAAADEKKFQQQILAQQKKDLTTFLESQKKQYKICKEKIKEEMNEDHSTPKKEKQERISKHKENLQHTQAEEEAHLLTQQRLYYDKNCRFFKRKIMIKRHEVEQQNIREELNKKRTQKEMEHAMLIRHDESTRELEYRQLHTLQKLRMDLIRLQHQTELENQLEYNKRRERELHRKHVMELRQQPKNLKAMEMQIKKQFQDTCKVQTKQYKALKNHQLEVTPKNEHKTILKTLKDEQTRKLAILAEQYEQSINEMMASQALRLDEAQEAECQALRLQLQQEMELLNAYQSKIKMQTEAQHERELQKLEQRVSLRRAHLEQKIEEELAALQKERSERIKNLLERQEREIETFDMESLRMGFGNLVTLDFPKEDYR

TGFBR1 (human) = TGFBR1 (human) (UniProt P36897)
TLK1 (human) = TLK1 (human) (UniProt Q9UKI8)
[3] = molecular target: TYK2 JH2 pseudokinase (human) (UniProt P29597)
Chain of TYK2 JH2 pseudokinase (human) (P29597 whole entry, looked up): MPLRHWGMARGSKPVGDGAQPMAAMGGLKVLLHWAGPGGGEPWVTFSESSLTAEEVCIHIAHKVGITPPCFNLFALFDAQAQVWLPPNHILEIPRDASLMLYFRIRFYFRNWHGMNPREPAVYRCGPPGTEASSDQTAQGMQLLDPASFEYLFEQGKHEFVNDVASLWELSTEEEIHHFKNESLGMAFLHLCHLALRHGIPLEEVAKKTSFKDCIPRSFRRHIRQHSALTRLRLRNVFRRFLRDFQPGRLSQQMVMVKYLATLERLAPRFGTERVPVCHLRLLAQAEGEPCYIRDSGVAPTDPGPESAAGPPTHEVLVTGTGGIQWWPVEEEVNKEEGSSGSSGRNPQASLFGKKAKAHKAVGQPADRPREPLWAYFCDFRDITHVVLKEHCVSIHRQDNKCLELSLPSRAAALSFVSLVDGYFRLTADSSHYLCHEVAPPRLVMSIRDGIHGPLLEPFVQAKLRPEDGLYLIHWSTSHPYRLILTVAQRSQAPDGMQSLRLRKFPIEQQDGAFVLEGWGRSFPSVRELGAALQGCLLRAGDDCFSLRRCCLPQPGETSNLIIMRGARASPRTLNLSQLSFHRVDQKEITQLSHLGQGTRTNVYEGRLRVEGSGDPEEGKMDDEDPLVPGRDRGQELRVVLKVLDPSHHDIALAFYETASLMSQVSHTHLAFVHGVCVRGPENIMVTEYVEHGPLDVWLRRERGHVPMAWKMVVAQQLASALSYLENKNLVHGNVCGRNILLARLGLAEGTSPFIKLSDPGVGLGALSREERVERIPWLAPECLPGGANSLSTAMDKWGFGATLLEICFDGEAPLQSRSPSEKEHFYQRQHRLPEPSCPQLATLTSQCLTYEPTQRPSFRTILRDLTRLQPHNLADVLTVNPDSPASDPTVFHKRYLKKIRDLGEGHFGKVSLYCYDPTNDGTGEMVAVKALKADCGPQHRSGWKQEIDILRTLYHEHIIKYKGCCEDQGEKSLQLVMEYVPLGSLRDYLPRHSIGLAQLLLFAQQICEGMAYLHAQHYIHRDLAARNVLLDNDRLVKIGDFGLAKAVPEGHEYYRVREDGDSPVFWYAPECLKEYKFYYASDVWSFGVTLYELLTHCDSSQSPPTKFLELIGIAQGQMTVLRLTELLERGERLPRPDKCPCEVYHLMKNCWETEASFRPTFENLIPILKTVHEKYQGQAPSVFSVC

Chain of CDK4 CCND3 (human) (P11802 whole entry, looked up): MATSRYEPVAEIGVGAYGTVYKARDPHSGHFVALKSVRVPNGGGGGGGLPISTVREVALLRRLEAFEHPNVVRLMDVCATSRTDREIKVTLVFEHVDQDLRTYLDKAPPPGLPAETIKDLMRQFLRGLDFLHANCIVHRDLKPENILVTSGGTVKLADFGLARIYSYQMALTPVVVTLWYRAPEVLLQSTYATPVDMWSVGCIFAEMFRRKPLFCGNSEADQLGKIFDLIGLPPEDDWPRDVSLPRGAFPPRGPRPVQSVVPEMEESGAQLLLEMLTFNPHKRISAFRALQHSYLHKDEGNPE
Chain of CDK4 CCND3 (human) (P30281 whole entry, looked up): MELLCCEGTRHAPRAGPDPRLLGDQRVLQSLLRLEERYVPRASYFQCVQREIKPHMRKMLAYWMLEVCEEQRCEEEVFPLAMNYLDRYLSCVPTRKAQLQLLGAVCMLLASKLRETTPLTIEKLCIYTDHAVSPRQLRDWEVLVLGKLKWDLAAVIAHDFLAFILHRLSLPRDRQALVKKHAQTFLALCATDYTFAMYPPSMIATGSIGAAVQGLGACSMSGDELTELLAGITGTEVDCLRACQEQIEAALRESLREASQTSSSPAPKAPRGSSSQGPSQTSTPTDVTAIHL

Compound `CNC(=O)c1cc(Oc2ccc(NC(=O)Nc3ccc(Cl)c(C(F)(F)F)c3)cc2)ccn1` has a per cent of control (ACVR1 (human)) of 100%, a per cent of control (ACVR2A (human)) of 100% and a per cent of control (BRSK2 (human)) of 98%. It also gave a per cent of control (CAMK2G (human)) of 100%, a per cent of control (CDK4 CCND3 (human)) of 100% and a per cent of control (CDK7 (human)) of 3.2%. The per cent of control (CRK2 (P.falciparum)) was 59%, the per cent of control (CSK (human)) was 52% and the per cent of control (CSNK1G3 (human)) was 100%. For the same compound, the per cent of control (DAPK3 (human)) was 94%, the per cent of control (DYRK2 (human)) was 60% and the per cent of control (EPHA4 (human)) was 15%. The per cent of control (FGR (human)) was 41%, the per cent of control (FLT3 (human)) was 0.05% and the per cent of control (GAK (human)) was 62%. For the same compound, the per cent of control (GRK4 (human)) was 99%, the per cent of control (IKBKB (human)) was 100% and the per cent of control (IKBKE (human)) was 100%. The per cent of control (MAP2K3 (human)) was 93%, the per cent of control (MAP2K4 (human)) was 85% and the per cent of control (MAP3K10 (human)) was 85%. It also gave a per cent of control (MAP3K6 (human)) of 72%, a per cent of control (MAPK4 (human)) of 79% and a per cent of control (MATK (human)) of 64%. For the same compound, the per cent of control [1] was 86%, the per cent of control (MKNK2 (human)) was 0.1% and the per cent of control (MST4 (human)) was 99%. It also gave a per cent of control (PI4KB (human)) of 100%, a per cent of control (PRKG1 (human)) of 100% and a per cent of control (RET (human)) of 0%. The per cent of control [2] was 0%, the per cent of control (RIOK3 (human)) was 88% and the per cent of control (SLK (human)) was 9.2%. The per cent of control (SRPK3 (human)) was 84%, the per cent of control (STK25 (human)) was 100% and the per cent of control (STK35 (human)) was 7.8%. The per cent of control (TAOK2 (human)) was 0.65%, the per cent of control (TAOK3 (human)) was 0.65% and the per cent of control (TGFBR1 (human)) was 100%. It also gave a per cent of control (TLK1 (human)) of 74% and a per cent of control [3] of 93%.
`CNC(=O)c1cc(Oc2ccc(NC(=O)Nc3ccc(Cl)c(C(F)(F)F)c3)cc2)cc[n+]1[O-]` showed a per cent of control (ACVR1 (human)) of 100%, a per cent of control (ACVR2A (human)) of 89% and a per cent of control (BRSK2 (human)) of 100%. The per cent of control (CAMK2G (human)) was 96%, the per cent of control (CDK4 CCND3 (human)) was 62% and the per cent of control (CDK7 (human)) was 5%. It also gave a per cent of control (CRK2 (P.falciparum)) of 100%, a per cent of control (CSK (human)) of 1% and a per cent of control (CSNK1G3 (human)) of 96%. For the same compound, the per cent of control (DAPK3 (human)) was 100%, the per cent of control (DYRK2 (human)) was 26% and the per cent of control (EPHA4 (human)) was 13%. It also gave a per cent of control (FGR (human)) of 28%, a per cent of control (FLT3 (human)) of 0.1% and a per cent of control (GAK (human)) of 70%. It also gave a per cent of control (GRK4 (human)) of 100%, a per cent of control (IKBKB (human)) of 61% and a per cent of control (IKBKE (human)) of 100%. For the same compound, the per cent of control (MAP2K3 (human)) was 71%, the per cent of control (MAP2K4 (human)) was 60% and the per cent of control (MAP3K10 (human)) was 88%. For the same compound, the per cent of control (MAP3K6 (human)) was 64%, the per cent of control (MAPK4 (human)) was 78% and the per cent of control (MATK (human)) was 62%. For the same compound, the per cent of control [1] was 16%, the per cent of control (MKNK2 (human)) was 0.05% and the per cent of control (MST4 (human)) was 49%. It also gave a per cent of control (PI4KB (human)) of 100%, a per cent of control (PRKG1 (human)) of 98% and a per cent of control (RET (human)) of 0%. For the same compound, the per cent of control [2] was 0%, the per cent of control (RIOK3 (human)) was 73% and the per cent of control (SLK (human)) was 9.4%. It also gave a per cent of control (SRPK3 (human)) of 86%, a per cent of control (STK25 (human)) of 32% and a per cent of control (STK35 (human)) of 40%. The per cent of control (TAOK2 (human)) was 8%, the per cent of control (TAOK3 (human)) was 0.4% and the per cent of control (TGFBR1 (human)) was 100%. It also gave a per cent of control (TLK1 (human)) of 60% and a per cent of control [3] of 99%.
